Results on 13 compounds are retold here after US8680290B2, “Isoxazoline derivatives and their use as herbicides” (Syngenta Limited, priority 2004, dated 2014).

In assay [1] the test system is Monocotyledonous and dicotyledonous test plants. The assay is described as follows: Example B1 herbicidal action, application pre-emergence (Table B1b). It counts as in vivo. The note with it: 250 g/ha, evaluated after 4 weeks. The essentials:
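Compounds sprayed as aqueous solution from acetone/Emulsogen EL/NMP/dipropylene glycol monomethyl ether/X-77 formulation onto soil right after sowing (pre-emergence) or onto 8–9-day plants (post-emergence); greenhouse-grown. Damage scored 0 (none) to 10 (total) after 4 weeks pre- or 3 weeks post-emergence.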

The test system is the same in assay [2]. The assay is described as follows: Example B1 herbicidal action, application post-emergence (Table B1a). The class given is in vivo. The note with it: 250 g/ha, evaluated after 3 weeks, scale 0-10. The protocol:
Monocotyledonous and dicotyledonous test plants were sown in seed trays in standard soil. Immediately after sowing (pre-emergence) or after 8 to 9 days cultivation (post-emergence), the test compounds were applied by spraying in the form of an aqueous solution derived from the formulation of the technical active ingredient in 0.6 ml acetone and 45 ml formulation solution containing 10.6% Emulsogen EL (CAS RN 61791-12-6), 42.2% N-methylpyrrolidone, 42.2% dipropylene glycol monomethyl ether (CAS RN 34590-94-8) and 0.2% X-77 (CAS RN 11097-66-8). The test plants were then grown in a greenhouse under optimum conditions. After a test duration of 3 weeks (post-emergence) or 4 weeks (pre-emergence), the test was evaluated (10=total damage to plant, 0=no damage to plant).

For `CC1(C)CC(S(=O)(=O)C(F)(F)c2ccccc2F)=NO1` [1.94], in assay [1], the “herbicidal action (damage rating 0-10), Amaranthus” value (shortened to “herbicidal action … Amaranthus”) is given as 10; the “herbicidal action (damage rating 0-10), Digitaria” value (from here on “herbicidal action … Digitaria”) came to 10; the “herbicidal action (damage rating 0-10), Panicum” value (“herbicidal action … Panicum” below) was determined as 10; the “herbicidal action (damage rating 0-10), Setaria” value (“herbicidal action … Setaria” for short) is 10. In addition, in assay [1], the “herbicidal action (damage rating 0-10), Sida” value (from here on “herbicidal action … Sida”) is recorded as 8. Besides, in assay [2], the “herbicidal damage rating, Abutilon” value is listed as 5; the “herbicidal damage rating, Amaranthus” value is on record as 7; the “herbicidal damage rating, Digitaria” value is listed as 8; the “herbicidal damage rating, Panicum” value was found to be 7. In addition, in assay [2], the “herbicidal damage rating, Setaria” value amounted to 8 and the “herbicidal damage rating, Sida” value stood at 0.
On to `CC1(C)CC(S(=O)(=O)C(F)(Cl)c2ccccc2[S+]([O-])C(F)(F)F)=NO1` (centres unmarked) [1.97], for which, in assay [1], the “herbicidal action … Amaranthus” value amounted to 8; the “herbicidal action … Digitaria” value stood at 10; the “herbicidal action … Panicum” value was determined as 10; the “herbicidal action … Setaria” value was 9. The “herbicidal action … Sida” value in assay [1] worked out at 0. In assay [2], the “herbicidal damage rating, Abutilon” value was 4; the “herbicidal damage rating, Amaranthus” value was found to be 5; the “herbicidal damage rating, Digitaria” value turned out to be 8; the “herbicidal damage rating, Panicum” value was 5. In addition, in assay [2], the “herbicidal damage rating, Setaria” value worked out at 7 and the “herbicidal damage rating, Sida” value is recorded as 0.
Turning to `Cc1ccc(F)c(C(Br)S(=O)(=O)C2=NOC(C)(C)C2)c1F` (centres unmarked) [1.102], in assay [1], the “herbicidal action … Amaranthus” value was found to be 8; the “herbicidal action … Digitaria” value is given as 10; the “herbicidal action … Panicum” value came out at 10; the “herbicidal action … Setaria” value is on record as 9. Also, the “herbicidal action … Sida” value in assay [1] came out at 2. Besides, in assay [2], the “herbicidal damage rating, Abutilon” value stood at 0; the “herbicidal damage rating, Amaranthus” value turned out to be 0; the “herbicidal damage rating, Digitaria” value was found to be 8; the “herbicidal damage rating, Panicum” value is on record as 5. Besides, in assay [2], the “herbicidal damage rating, Setaria” value is reported as 4 and the “herbicidal damage rating, Sida” value is recorded as 2.
On to `COc1ccccc1C(F)S(=O)(=O)C1=NOC(C)(C)C1` (centres unmarked) [1.104], for which, in assay [1], the “herbicidal action … Amaranthus” value is given as 0; the “herbicidal action … Digitaria” value stood at 9; the “herbicidal action … Panicum” value was found to be 10; the “herbicidal action … Setaria” value was 8. In addition, the “herbicidal action … Sida” value in assay [1] came to 3. Besides, in assay [2], the “herbicidal damage rating, Abutilon” value was found to be 3; the “herbicidal damage rating, Amaranthus” value is given as 0; the “herbicidal damage rating, Digitaria” value stood at 8; the “herbicidal damage rating, Panicum” value is listed as 7. Also, in assay [2], the “herbicidal damage rating, Setaria” value is 7 and the “herbicidal damage rating, Sida” value is recorded as 2.
With `Cc1ccc(F)c(C(F)S(=O)(=O)C2=NOC(C)(C)C2)c1F` (centres unmarked) [1.105], in assay [1], the “herbicidal action … Amaranthus” value came out at 10; the “herbicidal action … Digitaria” value worked out at 8; the “herbicidal action … Panicum” value is 10; the “herbicidal action … Setaria” value came out at 10. For the same compound, the “herbicidal action … Sida” value in assay [1] was determined as 7. Besides, in assay [2], the “herbicidal damage rating, Abutilon” value was found to be 2; the “herbicidal damage rating, Amaranthus” value was determined as 5; the “herbicidal damage rating, Digitaria” value stood at 8; the “herbicidal damage rating, Panicum” value was found to be 5. Further, in assay [2], the “herbicidal damage rating, Setaria” value was found to be 4 and the “herbicidal damage rating, Sida” value is on record as 7.
For the compound `COc1ccccc1C(F)(F)S(=O)(=O)C1=NOC(C)(C)C1` [1.107], in assay [1], the “herbicidal action … Amaranthus” value is recorded as 9; the “herbicidal action … Digitaria” value amounted to 7; the “herbicidal action … Panicum” value is 9; the “herbicidal action … Setaria” value was determined as 10. In addition, the “herbicidal action … Sida” value in assay [1] amounted to 0. In addition, in assay [2], the “herbicidal damage rating, Abutilon” value came to 4; the “herbicidal damage rating, Amaranthus” value came to 0; the “herbicidal damage rating, Digitaria” value was 8; the “herbicidal damage rating, Panicum” value stood at 7. Moreover, in assay [2], the “herbicidal damage rating, Setaria” value was 5 and the “herbicidal damage rating, Sida” value is reported as 5.
For `Cc1ccc(F)c(C(F)(F)S(=O)(=O)C2=NOC(C)(C)C2)c1F` [1.108], in assay [1], the “herbicidal action … Amaranthus” value turned out to be 10; the “herbicidal action … Digitaria” value came to 10; the “herbicidal action … Panicum” value is reported as 10; the “herbicidal action … Setaria” value stood at 10. Moreover, the “herbicidal action … Sida” value in assay [1] amounted to 9. For the same compound, in assay [2], the “herbicidal damage rating, Abutilon” value is given as 7; the “herbicidal damage rating, Amaranthus” value was 8; the “herbicidal damage rating, Digitaria” value came out at 8; the “herbicidal damage rating, Panicum” value is reported as 5. For the same compound, in assay [2], the “herbicidal damage rating, Setaria” value came to 5 and the “herbicidal damage rating, Sida” value is 8.
As for `CC1(C)CC(S(=O)(=O)C(F)(F)c2cc(F)cc3c2OCOC3)=NO1` [1.109], in assay [1], the “herbicidal action … Amaranthus” value worked out at 10; the “herbicidal action … Digitaria” value is given as 10; the “herbicidal action … Panicum” value stood at 10; the “herbicidal action … Setaria” value worked out at 9. Also, the “herbicidal action … Sida” value in assay [1] is reported as 0. In assay [2], the “herbicidal damage rating, Abutilon” value is 6; the “herbicidal damage rating, Amaranthus” value turned out to be 5; the “herbicidal damage rating, Digitaria” value amounted to 6; the “herbicidal damage rating, Panicum” value worked out at 5. Besides, in assay [2], the “herbicidal damage rating, Setaria” value was determined as 3 and the “herbicidal damage rating, Sida” value is on record as 2.
For `CC1(C)CC(S(=O)(=O)C(F)(F)c2cc(F)ccc2F)=NO1` [1.114], in assay [1], the “herbicidal action … Amaranthus” value came out at 10; the “herbicidal action … Digitaria” value is given as 10; the “herbicidal action … Panicum” value was 10; the “herbicidal action … Setaria” value was 10. Moreover, the “herbicidal action … Sida” value in assay [1] is reported as 9. Moreover, in assay [2], the “herbicidal damage rating, Abutilon” value came out at 3; the “herbicidal damage rating, Amaranthus” value is listed as 3; the “herbicidal damage rating, Digitaria” value is reported as 8; the “herbicidal damage rating, Panicum” value came out at 3. Besides, in assay [2], the “herbicidal damage rating, Setaria” value was determined as 8 and the “herbicidal damage rating, Sida” value turned out to be 2.
As for `CC1(C)CC(S(=O)(=O)C(F)(F)c2cc(F)cc(F)c2)=NO1` [1.115], in assay [1], the “herbicidal action … Amaranthus” value is on record as 10; the “herbicidal action … Digitaria” value was 10; the “herbicidal action … Panicum” value came out at 10; the “herbicidal action … Setaria” value stood at 10. Besides, the “herbicidal action … Sida” value in assay [1] was 8. In assay [2], the “herbicidal damage rating, Abutilon” value was 2; the “herbicidal damage rating, Amaranthus” value is 5; the “herbicidal damage rating, Digitaria” value came to 8; the “herbicidal damage rating, Panicum” value was determined as 8. For the same compound, in assay [2], the “herbicidal damage rating, Setaria” value is recorded as 7 and the “herbicidal damage rating, Sida” value is reported as 0.
Consider `CC1(C)CC(S(=O)(=O)C(F)(F)c2cccc(F)c2F)=NO1` [1.116], for which, in assay [1], the “herbicidal action … Amaranthus” value is reported as 10; the “herbicidal action … Digitaria” value is on record as 10; the “herbicidal action … Panicum” value is recorded as 10; the “herbicidal action … Setaria” value is given as 10. Moreover, the “herbicidal action … Sida” value in assay [1] was 7. For the same compound, in assay [2], the “herbicidal damage rating, Abutilon” value turned out to be 5; the “herbicidal damage rating, Amaranthus” value is recorded as 5; the “herbicidal damage rating, Digitaria” value was 8; the “herbicidal damage rating, Panicum” value is 7. Moreover, in assay [2], the “herbicidal damage rating, Setaria” value came to 7 and the “herbicidal damage rating, Sida” value was 0.
With `CC1(C)CC(S(=O)(=O)C(F)(F)c2ccccc2-c2ccccc2)=NO1` [1.117], in assay [1], the “herbicidal action … Amaranthus” value came to 9; the “herbicidal action … Digitaria” value was determined as 10; the “herbicidal action … Panicum” value is recorded as 10; the “herbicidal action … Setaria” value is 8. The “herbicidal action … Sida” value in assay [1] is 4. Besides, in assay [2], the “herbicidal damage rating, Abutilon” value is given as 4; the “herbicidal damage rating, Amaranthus” value is on record as 7; the “herbicidal damage rating, Digitaria” value came out at 7; the “herbicidal damage rating, Panicum” value is 5. For the same compound, in assay [2], the “herbicidal damage rating, Setaria” value came out at 6 and the “herbicidal damage rating, Sida” value came out at 6.
With `CC1(C)CC(S(=O)(=O)C(F)(F)c2ccc(F)cc2F)=NO1` [1.118], in assay [1], the “herbicidal action … Amaranthus” value came to 10; the “herbicidal action … Digitaria” value stood at 10; the “herbicidal action … Panicum” value is given as 10; the “herbicidal action … Setaria” value came out at 10. In addition, the “herbicidal action … Sida” value in assay [1] is 8. Moreover, in assay [2], the “herbicidal damage rating, Abutilon” value came out at 5; the “herbicidal damage rating, Amaranthus” value turned out to be 3; the “herbicidal damage rating, Digitaria” value was 8; the “herbicidal damage rating, Panicum” value was found to be 5. Besides, in assay [2], the “herbicidal damage rating, Setaria” value is on record as 7 and the “herbicidal damage rating, Sida” value was found to be 3.
